Test results from PubChem BioAssay AID2060898 (Molecular Pharmacology Branch, DTP, NCI, 2025).
One block for each molecule: values may come before it.

System: 616215-338-R-J1-PDC complex spheroid viability
Assay: Anticancer human tumor 616215-338-R-J1-PDC patient-derived colon adenocarcinoma cell line growth inhibition [RAS]
Settings: for IC50: curve of first compound; for viability, T/C: stronger effect = lower value
Method in brief: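 Tumour cells grown as complex spheroids with HUVEC endothelial cells and mesenchymal stem cells, treated with RAS pathway inhibitor combinations. Each agent spans half-log steps from near clinical Cmax, or 10 microM where Cmax is unknown.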

[1] = second compound 0.000949 µM, first compound 0.0316 µM
[2] = second compound 0.000949 µM, first compound 0.1 µM
[3] = second compound 0.000949 µM, first compound 0.316 µM
[4] = second compound 0.000949 µM, first compound 1 µM
[5] = second compound 0.000949 µM, first compound 3.16 µM
[6] = second compound 0.000949 µM, first compound 10 µM
[7] = second compound 0.003 µM, first compound 0.0316 µM
[8] = second compound 0.003 µM, first compound 0.1 µM
[9] = second compound 0.003 µM, first compound 0.316 µM
[10] = second compound 0.003 µM, first compound 1 µM
[11] = second compound 0.003 µM, first compound 3.16 µM
[12] = second compound 0.003 µM, first compound 10 µM
[13] = second compound 0.00949 µM, first compound 0.0316 µM
[14] = second compound 0.00949 µM, first compound 0.1 µM
[15] = second compound 0.00949 µM, first compound 0.316 µM
[16] = second compound 0.00949 µM, first compound 1 µM
[17] = second compound 0.00949 µM, first compound 3.16 µM
[18] = second compound 0.00949 µM, first compound 10 µM
[19] = second compound 0.03 µM, first compound 0.0316 µM
[20] = second compound 0.03 µM, first compound 0.1 µM
[21] = second compound 0.03 µM, first compound 0.316 µM
[22] = second compound 0.03 µM, first compound 1 µM
[23] = second compound 0.03 µM, first compound 3.16 µM
[24] = second compound 0.03 µM, first compound 10 µM
[25] = second compound 0.0949 µM, first compound 0.0316 µM
[26] = second compound 0.0949 µM, first compound 0.1 µM
[27] = second compound 0.0949 µM, first compound 0.316 µM
[28] = second compound 0.0949 µM, first compound 1 µM
[29] = second compound 0.0949 µM, first compound 3.16 µM
[30] = second compound 0.0949 µM, first compound 10 µM
[31] = second compound 0.3 µM, first compound 0.0316 µM
[32] = second compound 0.3 µM, first compound 0.1 µM
[33] = second compound 0.3 µM, first compound 0.316 µM
[34] = second compound 0.3 µM, first compound 1 µM
[35] = second compound 0.3 µM, first compound 3.16 µM
[36] = second compound 0.3 µM, first compound 10 µM
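Also: spheroids exposed to agents for seven days before viability readout.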
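For viability, T/C in this document: 100% = DMSO vehicle control viability.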

IC50 (second compound 0.000949 µM): > 10 µM
IC50 (second compound 0.003 µM): > 10 µM
IC50 (second compound 0.00949 µM): > 10 µM
IC50 (second compound 0.03 µM): > 10 µM
IC50 (second compound 0.0949 µM): > 10 µM
IC50 (second compound 0.3 µM): 7.52 µM
SMILES: Cc1nc(N2CCC3(CC2)COC(C)C3N)c(CO)nc1Sc1ccnc(N)c1Cl (stereo unspecified) + CCn1c(-c2cccnc2C(C)OC)c2c3cc(ccc31)N1CCOC(CC(NC(=O)C(C(C)C)N(C)C(=O)C3(F)CCN(C(=O)C#CC(C)(C)N(C)C)CC3)C(=O)N3CCCC(N3)C(=O)OCC(C)(C)C2)C1
viability, T/C [1]: 112%
viability, T/C [2]: 106%
viability, T/C [3]: 117%
viability, T/C [4]: 96.8%
viability, T/C [5]: 80.1%
viability, T/C [6]: 72.3%
viability, T/C [7]: 110%
viability, T/C [8]: 112%
viability, T/C [9]: 103%
viability, T/C [10]: 92.6%
viability, T/C [11]: 79.6%
viability, T/C [12]: 69.6%
viability, T/C [13]: 113%
viability, T/C [14]: 108%
viability, T/C [15]: 111%
viability, T/C [16]: 93.3%
viability, T/C [17]: 92.6%
viability, T/C [18]: 62.8%
viability, T/C [19]: 116%
viability, T/C [20]: 114%
viability, T/C [21]: 101%
viability, T/C [22]: 97.8%
viability, T/C [23]: 86.1%
viability, T/C [24]: 59.1%
viability, T/C [25]: 117%
viability, T/C [26]: 120%
viability, T/C [27]: 96.8%
viability, T/C [28]: 74.2%
viability, T/C [29]: 62.5%
viability, T/C [30]: 53.8%
viability, T/C [31]: 102%
viability, T/C [32]: 84%
viability, T/C [33]: 77%
viability, T/C [34]: 68.3%
viability, T/C [35]: 52.6%
viability, T/C [36]: 49.2%

IC50 (second compound 0.000949 µM): 6.25 µM
IC50 (second compound 0.003 µM): 7 µM
IC50 (second compound 0.00949 µM): > 10 µM
IC50 (second compound 0.03 µM): 2.96 µM
IC50 (second compound 0.0949 µM): 1.7 µM
IC50 (second compound 0.3 µM): 0.564 µM
SMILES: NC1c2ccccc2OC12CCN(c1cnc3c(N4CCCc5ncccc54)n[nH]c3n1)CC2 (stereo unspecified) + CCn1c(-c2cccnc2C(C)OC)c2c3cc(ccc31)N1CCOC(CC(NC(=O)C(C(C)C)N(C)C(=O)C3(F)CCN(C(=O)C#CC(C)(C)N(C)C)CC3)C(=O)N3CCCC(N3)C(=O)OCC(C)(C)C2)C1
viability, T/C [1]: 121%
viability, T/C [2]: 92.4%
viability, T/C [3]: 81.9%
viability, T/C [4]: 67.8%
viability, T/C [5]: 61%
viability, T/C [6]: 43.1%
viability, T/C [7]: 119%
viability, T/C [8]: 94.7%
viability, T/C [9]: 75.5%
viability, T/C [10]: 64.8%
viability, T/C [11]: 64.2%
viability, T/C [12]: 43%
viability, T/C [13]: 113%
viability, T/C [14]: 85.2%
viability, T/C [15]: 72.7%
viability, T/C [16]: 59%
viability, T/C [17]: 64.6%
viability, T/C [18]: 49.5%
viability, T/C [19]: 106%
viability, T/C [20]: 85.1%
viability, T/C [21]: 76.9%
viability, T/C [22]: 56.4%
viability, T/C [23]: 56.7%
viability, T/C [24]: 35%
viability, T/C [25]: 105%
viability, T/C [26]: 75.7%
viability, T/C [27]: 59.4%
viability, T/C [28]: 56.3%
viability, T/C [29]: 51.8%
viability, T/C [30]: 38.5%
viability, T/C [31]: 73.4%
viability, T/C [32]: 58%
viability, T/C [33]: 56.2%
viability, T/C [34]: 46.6%
viability, T/C [35]: 42.8%
viability, T/C [36]: 41%

IC50 (second compound 0.000949 µM): 0.0152 µM
IC50 (second compound 0.003 µM): 0.0112 µM
IC50 (second compound 0.00949 µM): 0.0146 µM
IC50 (second compound 0.03 µM): 0.0115 µM
IC50 (second compound 0.0949 µM): 0.0101 µM
IC50 (second compound 0.3 µM): 0.00955 µM
SMILES: Nc1ccn(C2OC(CO)C(O)C2(F)F)c(=O)n1 (stereo unspecified) + CCn1c(-c2cccnc2C(C)OC)c2c3cc(ccc31)N1CCOC(CC(NC(=O)C(C(C)C)N(C)C(=O)C3(F)CCN(C(=O)C#CC(C)(C)N(C)C)CC3)C(=O)N3CCCC(N3)C(=O)OCC(C)(C)C2)C1
viability, T/C (second compound 0.000949 µM, first compound 0.00316 µM): 105%
viability, T/C (second compound 0.000949 µM, first compound 0.01 µM): 62.8%
viability, T/C [1]: 28%
viability, T/C [2]: 13.1%
viability, T/C [3]: 16.3%
viability, T/C [4]: 14.2%
viability, T/C (second compound 0.003 µM, first compound 0.00316 µM): 114%
viability, T/C (second compound 0.003 µM, first compound 0.01 µM): 51.5%
viability, T/C [7]: 29%
viability, T/C [8]: 14.6%
viability, T/C [9]: 11.6%
viability, T/C [10]: 12.4%
viability, T/C (second compound 0.00949 µM, first compound 0.00316 µM): 108%
viability, T/C (second compound 0.00949 µM, first compound 0.01 µM): 61.2%
viability, T/C [13]: 27.5%
viability, T/C [14]: 14.7%
viability, T/C [15]: 14.1%
viability, T/C [16]: 13.2%
viability, T/C (second compound 0.03 µM, first compound 0.00316 µM): 114%
viability, T/C (second compound 0.03 µM, first compound 0.01 µM): 53.9%
viability, T/C [19]: 22.2%
viability, T/C [20]: 14.9%
viability, T/C [21]: 14.6%
viability, T/C [22]: 13.5%
viability, T/C (second compound 0.0949 µM, first compound 0.00316 µM): 95.7%
viability, T/C (second compound 0.0949 µM, first compound 0.01 µM): 50.1%
viability, T/C [25]: 22.9%
viability, T/C [26]: 14.3%
viability, T/C [27]: 15.2%
viability, T/C [28]: 12.6%
viability, T/C (second compound 0.3 µM, first compound 0.00316 µM): 69.7%
viability, T/C (second compound 0.3 µM, first compound 0.01 µM): 48.9%
viability, T/C [31]: 27.8%
viability, T/C [32]: 16.6%
viability, T/C [33]: 17%
viability, T/C [34]: 17%
